Two molecules from ChEMBL document CHEMBL1133125, “A sigma-1 receptor selective analogue of BD1008. A potential substitute for (+)-opioids in sigma receptor binding assays” (Bioorg Med Chem Lett, 2000) can be followed below.

The target of this test is Sigma 2 receptor. The test can be described thus: Binding affinity against sigma 2 opioid receptor using 3[H]-DTG in the presence of dextrallorphan as radioligand.

For `O=C(Cc1ccc(Cl)c(Cl)c1)OCCN1CCCC1`, the inhibition constant (Ki) (usually the dissociation constant of the complex between target and ligand, obtained from inhibition or displacement) is above 10000 nM.
Consider `CN(CCc1ccc(Cl)c(Cl)c1)CCN1CCCC1`, for which the inhibitory constant (Ki) amounted to 8.1 nM.
